Here are results for 5 molecules from patent publication US20130203843A1, “MILD CATIONIC MITOCHONDRIAL UNCOUPLERS” (LIMITED LIABILITY COMPANY MITOTECH, priority 2010, published 2013).

The subject of one series is obese people. The note with it: obese people treated with DNP; cited from earlier work.
Series [1] is described as follows: Dissipation of pH gradient in membranes of pyranine-loaded liposomes. Particulars: for dissipation of pH gradient (intraliposomal pH change), protonophore activity: in the presence of valinomycin (10 nM), C12R19 and C12RB at 0.15 μM, pH 8 buffer. The protocol:
FIG. 2. […] Intraliposomal pH was estimated based on the ratio of the intensities of fluorescence at 455 nm and 505 nm (excitation at 410 nm). 1 μM nigericin was added at 550 s for final pH adjustment. Control curve contained C12R19 but no valinomycin. Concentrations: C12R19 (150 nM), C12RB (150 nM), valinomycin (10 nM), lipid (75 μM). […] Control curve corresponds to addition of 10 nM valinomycin without protonophores. Buffer containing 10 mM MES, 10 mM MOPS, 10 mM TRICINE, and 0.1 M KCl (pH 8) was used.
This method was used in various studies on the protonophore activity and is described in detail in article: Chen Y, Schindler M, Simon S M (1999) J Biol Chem 274:18364-18373. […] Said measurements were performed in the presence of valinomycin, the K^+ ionophore.

Series [2] relates to yeast cells treated with 80 μM amiodarone. Description: Survival of yeast cells treated with amiodarone. Format: cell-based, Saccharomyces cerevisiae. The protocol:
FIG. 5. Comparison of resistance of yeast cells to 80 μM amiodarone in the presence of different concentrations of anionic (FCCP) and cationic (C12R19) uncouplers.
To test this, we compared the survival of yeast cells treated with 80 μM amiodarone in the presence of 1-10000 nmol/L FCCP and C12R19.

Series [3] deals with whole yeast (Saccharomyces cerevisiae) cells. Description: Rate of oxygen consumption by whole yeast cells. The note with it: for stimulation of respiration versus suppression of growth: wide range of concentrations, yeast grown on nonfermentable substrate (glycerol). Type of series: cell-based. The protocol:
(§1) FIG. 3. Comparison of properties of C12R19 and C12RB based on relative rate of oxygen consumption by whole yeast (Saccharomyces cerevisiae) cells (A) and yeast growth rate (B). V/V0 corresponds to ratio of oxygen consumption rates after and before addition of uncoupler. Growth rate was defined as the number of CFU (colony-forming units) in cell suspension culture incubated for 2 hours in the presence of indicated concentration of rhodamine derivative.
(§2) FIG. 4. Comparison of stimulation of respiration and suppression of growth: (A) cationic (C12R19), and (B) anionic (FCCP) uncouplers in yeast (Saccharomyces cerevisiae) cells grown on nonfermentable substrate (glycerol). Stimulation of respiration was estimated based on the ratio of oxygen consumption rate in the presence of uncoupler (V) to initial rate (V0). Growth rate was assessed by increase in the number of cells for a given time interval. Growth rate in the absence of uncoupler was taken as 100%.
Simulation of respiration of whole yeast cells reflects uncoupling properties of tested compound.

A further series concerns ischemized rats. Description: Cerebral ischemia in rats (middle cerebral artery blockage): MRT infarct volume and neurological deficit. Format: in vivo. Particulars: rat, i.p. 100 nmol/kg 24 hours before ischemia, 1 day after surgery. The procedure:
FIG. 7. Results of behavioral tests in rats before and at the first day after induction of ischemia. Bar “baseline” indicates final points in animals before surgery; “SO”—points in sham-operated animals; “ischemia+saline”—points in ischemized animals without treatment, with saline solution instead of the preparation; “ischemia+C12R19 0.1 μM” and “ischemia+C12R19 2 μM”—points in ischemized animals with treatment with preparation C12R19 at indicated concentrations. Statistically significant (p<0.01) reduction in severity of neurological deficit in rats treated with C12R19, denoted as
Cerebral ischemia in rats was induced by insertion of nylon thread with silicone coating into the middle cerebral artery. Blockage of the blood flow was maintained for 60 min, after which the thread was removed from the vessel restoring the blood flow in the middle cerebral artery. During and after the surgery the body temperature of the animal was maintained at 37° C. Sham-operated animals were subjected to the same procedures, except for cutting vessels and insertion of thread. The volume of cerebral infarction was determined at the first day to study neuroprotective effects of preparations. […]
1 day after surgery, neurological deficit was determined in rats in the test “Stimulation of legs” and magnetic resonance imaging of the brain was performed. […]

For series [4], the system named is rats with induced rhabdomyolysis. The series is described as follows: Rhabdomyolysis-induced acute renal failure in rats. Type of series: in vivo. Particulars: rat; i.p. 100 nmol/kg per injection, total 400 nmol/kg; 48 h after glycerol; versus rhabdomyolysis without treatment. The procedure: FIG. 6. Creatinine level in blood of rats with induced rhabdomyolysis. Histogram bar “control” indicates level of creatinine in control group of animals; “rhabdo”—creatinine level in animals with rhabdomyolysis; “rhabdo+C12-R19”—creatinine level in animals with rhabdomyolysis and treatment with C12R19. All data are presented as mean±standard error of measurement.
Induction of rhabdomyolysis was performed according to standard method by injecting rat leg muscles with 50% aqueous glycerol solution (ICN, USA). At the second day after ischemia, blood samples from animals were taken. Creatinine concentration in blood was determined using a CellTac blood analyzer (Nihon Kohben). Experiments on modeling of rhabdomyolysis were performed with at least 8 animals from each group. All data are presented as mean±standard error of measurement.
For the treatment, the following scheme of C12R19 administration was used: intraperitoneal injection of the preparation 1 h after induction of rhabdomyolysis and then three times every 12 hours at a dose of 100 nmol/kg per injection. Thus, an animal received a total dose of 400 nmol/kg of C12R19.

Series [5] concerns yeast Saccharomyces cerevisiae. The series is described as follows: Yeast growth rate in the presence of uncoupler. Format: cell-based. Particulars: 5 μM; incubated for 2 hours. The procedure: as §1, §2
Under similar conditions experiments determining yeast growth rate in the presence of a given concentration of uncoupler were performed.

Series [6] can be described thus: Diffusion potential on planar bilayer lipid membrane ("black membrane" model). The note with it: for formation of potential upon creation of gradient of the penetrating cation: 1 μM on cis side, same pH on both sides (pH=7); for formation of proton diffusion potential across lipid bilayer: 1 μM, pH_cis=7, pH_trans=8. The procedure: FIG. 1. A. C12R19, but not C12RB, induces formation of proton diffusion potential across planar lipid bilayer membrane prepared from DPhPC. Concentrations of C12R19 and C12RB are 1 μM. pH_cis=7, pH_trans=8. B. Formation of potential upon creation of gradient of penetrating cations C12RB and C12R19 (1 μM on cis side) at the same pH on both sides (pH=7).
To test penetrating ability of mitochondria-targeted compounds of structure (I), a method based on the ability of ions to penetrate through the bilayer phospholipid membrane moving along concentration gradient was used. The two chambers filled with an aqueous solution are separated by the bilayer membrane, the compound tested is added to one of the chambers. If a charged compound is capable of penetrating through the bilayer membrane, fast diffusion of the compound from the chamber with its high concentration to the chamber with its low concentration occurs, thus difference in the potentials is formed across the membrane. For ions carrying one charge and capable of passive penetrating through the membrane, the 10-fold concentration gradient allows to produce the potential of 60 mV at room temperature and ideal permeability (according to the Nernst equation).
This method was used in various studies on the ability of ions to penetrate through a bilipid membrane and is described in detail in article: Starkov A A, Bloch D A, Chernyak B V, Dedukhova V I, Mansurova S A, Symonyan R A, Vygodina T V, Skulachev V P, 1997, Biochem. Biophys Acta, 1318, 159-172. With this method, C12-R19 (compound of structure (I)) was tested.
It is known that addition of protonophore to such a system should lead to formation of the electric potential due to the flow of protons. […] This can be explained by shunting of potential due to induction of proton conductivity in the presence of C12R19.

In series [7] the test system is yeast cells treated with 80 μM amiodarone. The note with it: earlier publication (Pozniakovsky 2005); cited from earlier work.

On to `O=[N+]([O-])c1ccc(O)c([N+](=O)[O-])c1` [DNP, 2,4-dinitrophenol], for which, in the series on obese people, the “side effects in patients” value is “many of them showed severe side effects” and the “weight loss in patients” value is on record as “virtually all of the patients lost weight”.
Take `CC(C)[C@@H]1NC(=O)[C@H](C)OC(=O)[C@@H](C(C)C)NC(=O)[C@@H](C(C)C)OC(=O)[C@H](C(C)C)NC(=O)[C@H](C)OC(=O)[C@@H](C(C)C)NC(=O)[C@@H](C(C)C)OC(=O)[C@H](C(C)C)NC(=O)[C@H](C)OC(=O)[C@@H](C(C)C)NC(=O)[C@@H](C(C)C)OC1=O` [valinomycin]: the “proton flux on liposomes by valinomycin itself” value in series [1] (control experiments, data not shown) is recorded as “does not induce proton flux on liposomes”.
As to `CCCCCCCCCCCCOC(=O)c1ccccc1-c1c2cc(C)c(=NCC)cc-2oc2cc(NCC)c(C)cc12` (stereo in doubt) [C12R19, Dodecyl-2-[(3E)-6-(ethylamino)-3-(ethylimino)-2,7-dimethyl-3H-xanthen-9-yl]benzoate bromide], the “concentration range of cationic uncoupler relative to FCCP” value in series [2] is reported as “at least an order of magnitude higher”. The “concentration range protecting cells against amiodarone” value in [2] (1-10000 nmol/L tested) was 1 to 1000 nmol/L. Also, the “rate of respiration of whole yeast cells” value in [3] (concentration range that includes 5 μM) was “marked stimulation of the rate of respiration”; in series [3] (up to a concentration of 15 μM) it was “did not reduce the rate of respiration”. The “stimulation of respiration versus suppression of growth” value in [3] was “increases respiration rate without inhibiting yeast growth”. The “neurological deficit, test "Stimulation of legs" (14-point scale)” value in the series on ischemized rats (control rats 2.0±0.2, p<0.01) came to 5.3±1.1 points. Moreover, the “volume of ischemic damage (T2-weighted MRT)” value in the series with ischemized rats (saline = 100±8.6%) was 80.4±11.5%. In addition, in series [4], the “creatinine level in blood” value is “decrease in creatinine level in blood”. Moreover, the “yeast growth rate (CFU)” value in series [5] was “significant reduction in the growth rate of the yeast Saccharomyces cerevisiae is not observed”. Further, the “intraliposomal pH changes” value in series [1] (in the absence of valinomycin, C12R19 150 nM) is recorded as “pH changes did not occur”. In addition, the “dissipation of pH gradient (intraliposomal pH change), protonophore activity” value in series [1] is given as “significant changes of intraliposomal pH on the time-scale of minutes”. Besides, the “formation of potential upon creation of gradient of the penetrating cation” value in series [6] is on record as “did not”. Further, the “formation of proton diffusion potential across lipid bilayer” value in series [6] was “can generate potential”.
On to `CCCCCCCCCCCCOC(=O)c1ccccc1-c1c2ccc(N(CC)CC)cc2[o+]c2cc(N(CC)CC)ccc12` [C12RB], for which the “rate of respiration of whole yeast cells” value in [3] (concentration of 4 μM) was “significant increase in the rate of respiration”. Besides, in [3] (further increase in concentration above 4 μM), the “rate of respiration of whole yeast cells” value is “inhibition of respiration”. The “dissipation of pH gradient (intraliposomal pH change), protonophore activity” value in series [1] is “practically no activity”. Moreover, in [6], the “formation of potential upon creation of gradient of the penetrating cation” value is listed as “induced the potential upon addition at one side” and the “formation of proton diffusion potential across lipid bilayer” value is given as “but not C12RB, can generate potential”.
`N#CC(C#N)=NNc1ccc(OC(F)(F)F)cc1` [FCCP]: the “uncoupling efficiency estimated from rate of oxygen consumption” value in [3] (FCCP compared with C12R19) is “much higher than that of C12R19”. The “stimulation of respiration versus suppression of growth” value in series [3] is “in contrast to FCCP”. In addition, the “yeast cell death caused by amiodarone” value in [7] is given as “prevents yeast cell death caused by amiodarone”. In series [1], the “dissipation of pH gradient (intraliposomal pH change), protonophore activity” value is listed as “significantly greater activity”.
